{
  "source": "patent US10183030B2",
  "about": "“17α,21-diesters of cortexolone for use in the treatment of tumors” (COSMO TECHNOLOGIES LTD., priority 2014, dated 2019)",
  "key": {"[1]": {"test_system": "Panc1 (AR+) pancreatic cancer cells", "assay": "ATP-dependent proliferation/viability assay, Panc1", "type": "cell-based", "conditions": "Homo sapiens, read-out: IC50", "protocol": "(§1) The experimental method consisted of: • 1. […] After 24 hours, 10 nM DHT (dihydrotestosterone) with or without anti-androgen compounds, or DMSO vehicle (negative control) was added to the cultures. • 3.\n(§2) Each compounds was titrated from 3 uM to 200 uM."}, "[2]": {"test_system": "Caspase 8, 9 and 3/7 in MiaPaca2 cells", "assay": "Caspase activity in MiaPaca2 cells", "type": "cell-based, human", "protocol": "From previous studies was determined that CB-03-10 induces apoptosis using Annexin V staining in MiaPaca2 cells. To better analyze the phenomenon the enzymatic activity of Caspase 8 (initiator caspase for Extrinsic Pathway) and Caspase 9 (initiator caspase for Intrinsic Pathway) and of Caspases 3 and 7 (effector caspases) were measured.\nAfter 24 hours test compounds were added to cells, Gemcitabine (a known pancreatic cancer chemotherapeutic agent) and DMSO were used as positive and negative control, respectively. After 8, 24, & 48 hours incubation with test compounds, cells were lysed in buffer containing the caspase 3/7 or 8 or 9 substrate and a stable luciferase in proprietary buffers. The lysates were transferred to white opaque plates before measuring luminescence in a Tecan Safire instrument. Parallel plates treated identically, were used to determine viable cells. All caspase activities were corrected for the number of viable cells."}, "MDA-MB-231 TNBC cells": {"test_system": "MDA-MB-231 TNBC cells", "assay": "In vitro proliferation / cytotoxic assay, MDA-MB-231", "type": "cell-based", "conditions": "Homo sapiens; MDA-MB-231 (ER−PR−GR++); 72 hours; Table VI; unit inferred; read-out: IC50 on breast cancer cells", "description": "After 72 hours incubation cell were harvested, lysed and viability determined using the cell titer glow assay for viability."}, "LNCaP cells": {"test_system": "LNCaP cells", "assay": "LNCaP cell viability in the PSA secretion experiment", "type": "cell-based", "conditions": "Homo sapiens, 48 hours, same cells as PSA assay", "protocol": "Prostate-specific antigen, or PSA, is a protein produced by cells of the prostate gland. The PSA test measures the level of PSA in a person's blood. The blood level of PSA is often elevated in men with prostate cancer and it used as surrogate marker to test prostate cancer progression in human population. […] After 48 hours incubation with test compounds, supernatants were harvested and tested with an Elisa assay for PSA and same cells were lysed for cell viability assessment."}, "[3]": {"test_system": "MiaPaca2 (AR low) pancreatic cancer cells", "assay": "ATP-dependent proliferation/viability assay, MiaPaca2", "type": "cell-based", "conditions": "Homo sapiens, read-out: IC50", "protocol": "as §1, §2"}, "HT29 colon cancer cells": {"test_system": "HT29 colon cancer cells", "assay": "In vitro proliferation, HT29 (cancer cell panel)", "type": "cell-based", "conditions": "Homo sapiens", "protocol": "as §2"}, "[4]": {"test_system": "HT29 epithelial intestinal cancer cells", "assay": "MTT colorimetric assay on HT29", "type": "cell-based", "conditions": "Homo sapiens, 72 h", "protocol": "The experiment was performed to test and define anticancer activity in vitro of Cortexolone 17α-benzoate and cortexolone 17α-valerate-21-propionate on cell lines representatives of epithelial intestinal tumors, namely HT29. The experiment method consisted in: • 1. Monolayer HT-29 cells were plated in: 96-wells plates at the density of 2×10^4 cells/mL. The cells plated were kept at 37° C. in 5% CO2 and left to attach for 24 h. • 2. Thereafter the cells were incubated for 72 h with the test compounds at the concentrations each of […]. • 3. After 72 h of treatment, the MTT colorimetric assay was performed."}, "Glucocorticoid Receptor": {"target": "T1, Glucocorticoid Receptor (Homo sapiens, UniProt P04150)", "T1 construct": "endogenous in cells; host or cells: human kidney epithelial cells", "T1 sequence (P04150 1-777)": "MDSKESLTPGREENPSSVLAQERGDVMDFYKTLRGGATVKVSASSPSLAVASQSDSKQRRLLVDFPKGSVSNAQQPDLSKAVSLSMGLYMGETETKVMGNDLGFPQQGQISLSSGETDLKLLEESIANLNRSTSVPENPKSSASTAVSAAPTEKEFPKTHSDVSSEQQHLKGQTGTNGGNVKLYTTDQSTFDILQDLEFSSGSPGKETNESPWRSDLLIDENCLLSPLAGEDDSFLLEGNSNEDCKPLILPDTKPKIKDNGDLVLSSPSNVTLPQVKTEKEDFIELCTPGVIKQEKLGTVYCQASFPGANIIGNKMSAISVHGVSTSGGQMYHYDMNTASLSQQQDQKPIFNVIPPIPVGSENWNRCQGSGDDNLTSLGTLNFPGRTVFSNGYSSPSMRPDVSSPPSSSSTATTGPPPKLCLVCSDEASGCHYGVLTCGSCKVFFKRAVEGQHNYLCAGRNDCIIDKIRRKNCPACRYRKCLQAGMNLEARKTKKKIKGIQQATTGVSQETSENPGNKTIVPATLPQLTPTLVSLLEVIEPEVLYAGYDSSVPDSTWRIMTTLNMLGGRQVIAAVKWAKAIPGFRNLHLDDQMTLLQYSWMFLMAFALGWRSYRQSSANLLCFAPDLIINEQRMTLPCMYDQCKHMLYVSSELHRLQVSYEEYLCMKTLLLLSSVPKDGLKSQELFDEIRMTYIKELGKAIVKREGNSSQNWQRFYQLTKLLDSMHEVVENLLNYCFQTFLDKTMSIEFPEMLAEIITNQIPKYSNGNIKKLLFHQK", "assay": "GR reporter assay, antagonist mode", "type": "cell-based", "conditions": "FIG. 7", "protocol": "The androgen and glucocorticoid hormones elicit divergent and often opposing effects in cells, tissues, and animals. […] CB-03-10 GR antagonist and agonist activities were tested in an in vitro assay. Briefly, human kidney epithelial cells were transfected with DNA construct containing GR binding sites linked to luminescent based reporter molecule. After 24 hours, cells were treated under antagonist or agonist modes. After an additional 24 hours, luminescence which is proportional to GR agonist transcriptional activity was quantitated.\nAntagonist Assay was based on inhibition of luminescence induced by Dexamethasone (Dex).\nThe antagonist activity of CB-03-10 was compared to a known GR antagonist, Mifepristone (also called RU486) as shown in FIG. 7."}},
  "note": "Like-named read-outs stand apart in the source and are kept apart here.",
  "data": [
    {"compound": "CCCCC(=O)O[C@]1(C(=O)COC(=O)CC)CC[C@H]2[C@@H]3CCC4=CC(=O)CC[C@]4(C)[C@H]3CC[C@@]21C", "note": "[CB-03-10, cortexolone 17α-valerate-21-propionate]", "values": [
      {"measurement": "IC50", "setting": "[1]; PANC-1, 72 h, Panc1, 10 nM DHT, 3 days, Examples 3-4, Experiment 1", "result": 66, "unit": "µM"},
      {"measurement": "IC50", "setting": "[1]; PANC-1, Panc1, Example 7, Experiment 1", "result": 68, "unit": "µM"},
      {"measurement": "Caspase 3/7 induction", "setting": "[2]; 8, 24, 48 hours", "result": "already at 8 hours at and a really high level after 48 hours incubation"},
      {"measurement": "increase in Caspase 8 and 9 activity compared to control", "setting": "[2]; 20 or 50 μM, 8, 24, 48 hours, corrected for viable cells", "result": "≤ 7", "unit": "fold"},
      {"measurement": "IC50", "setting": "MDA-MB-231 TNBC cells", "result": 106, "unit": "µM"},
      {"measurement": "IC50", "setting": "LNCaP cells", "result": 11, "unit": "µM"},
      {"measurement": "IC50", "setting": "[3]; MIA PaCa-2, 72 h, MiaPaca2, 10 nM DHT, 3 days, Examples 3-4, Experiment 1", "result": 43, "unit": "µM"},
      {"measurement": "IC50", "setting": "[3]; MIA PaCa-2, MiaPaca2, Example 7, Experiment 1", "result": 34, "unit": "µM"},
      {"measurement": "IC50", "setting": "HT29 colon cancer cells; HT-29, read-out: In vitro proliferation IC50 (micro Molar)", "result": 14, "unit": "µM"},
      {"measurement": "IC50", "setting": "HT29 colon cancer cells; HT-29, read-out: in vitro proliferation IC50 (μ/M)", "result": 14, "unit": "µM"},
      {"measurement": "inhibition at 0.8 µM", "setting": "[4]; HT-29, 0.8 micromolar", "result": 0.44, "unit": "%"},
      {"measurement": "inhibition at 4 µM", "setting": "[4]; HT-29, 4 micromolar", "result": 14.2, "unit": "%"},
      {"measurement": "inhibition at 20 µM", "setting": "[4]; HT-29, 20 micromolar", "result": 25.5, "unit": "%"},
      {"measurement": "inhibition at 100 µM", "setting": "[4]; HT-29, 100 micromolar", "result": 89.8, "unit": "%"},
      {"measurement": "inhibition at 500 µM", "setting": "[4]; HT-29, 500 micromolar", "result": 92.1, "unit": "%"},
      {"measurement": "GR antagonist potency relative to RU486", "setting": "Glucocorticoid Receptor", "result": 10, "unit": "times less"},
      {"measurement": "GR antagonist activity", "setting": "Glucocorticoid Receptor; inhibition of luminescence induced by Dexamethasone", "result": "potent antagonist"}
    ]}
  ]
}
